The source of these data is patent US4629737A, “Secondary amines and use in pharmaceutical compositions” (Beecham Group p.l.c., priority 1982, dated 1986).

Each structure is given as a SMILES string. Structures can show the parent of a compound that is named as a salt. Where two headings read alike, the source gives them in different places.

A short description of experiment [1]: Effect on energy expenditure of mice. The experiment is classed as in vivo, Female CFLP mice. To be noted: Mus musculus. The procedure:
Female CFLP mice, each weighing approximately 24 g were given food and water ad lib before and during the experiment. The compounds were dissolved in water by addition of one mole of hydrochloric acid per mole of compound and these solutions were administered orally to each of 12 mice. A further 12 mice were dosed orally with water. The mice were placed in boxes through which air was drawn and the oxygen content of the air leaving the boxes was measured. The energy expenditure of the mice was calculated for 21 hours after dosing from the volume of air leaving the boxes and its oxygen content, following the principles described by J. B. de V. Weir, J. Physiol. (London), 109, 1-9 (1949).

The subject of another experiment is blood glucose. In words: Hypoglycaemic activity: reduction in area under blood glucose curve after glucose load. In kind it is in vivo, Female CFLP mice. To be noted: Mus musculus, read-out: % Reduction in area under Blood Glucose Curve. As to the method: Female CFLP mice, weighing approximately 25 g, were fasted for 24 hours prior to the study. The compounds under study were administered orally as an aqueous solution to each of 6 mice. 30 minutes later a blood sample (10 μl) was obtained from the tail for the analysis of blood glucose. Immediately after taking this blood sample, glucose (1 g/Kg body weight) was administered subcutaneously to each mouse. 6 mice were given water as a control. Blood samples were then obtained from each mouse at 30 minute intervals for 120 minutes.
Compounds that produced a significant (P<0.05) reduction of blood glucose, compared with control mice given water, at any time interval, were considered active. The area under the blood glucose curve over the 2 hour period after the administration of the glucose was calculated for each compound and compared with the value for control animals.

[2] abbreviates: po, 21 h, read-out: Mean Energy Expenditure (0-21 h).
The mark [3] stands for this setting: po, 3 h, read-out: Mean Energy Expenditure (0-3 h).
The mark [4] stands for this setting: 12.5 μmol/Kg oral, 2 h after glucose 1 g/Kg s.c., vs control.

On to `COC(=O)COc1ccc(C[C@@H](C)NC[C@H](OC)c2cccc(Cl)c2)cc1` (relative stereo) [Example 60, N-[2-(4-Carbomethoxymethoxyphenyl)-1-methylethyl]-2-methoxy-2-(3-chlorophenyl)ethanamine hydrochloride(RR,SS)diasteroisomer], for which the response vs control in vivo at 8.6 mg/kg in experiment [1] (setting [2]) came out at 115%; in experiment [1] (8.6 mg/kg po, 0-3 h, read-out: Mean Energy Expenditure (0-3 h)) it was 131%. In addition, the inhibition in vivo at 0.5 µmol/kg with blood glucose (0.5 μmol/Kg oral, 2 h after glucose 1 g/Kg s.c., vs control) was 30.5%.
`COC(=O)COc1ccc(CC(C)NCC(OC)c2cccc(C(F)(F)F)c2)cc1` (stereo not drawn) [Example 2, N-[2-(4-Carbomethoxymethoxyphenyl)-1-methylethyl]-2-methoxy-2-(3-trifluoromethylphenyl)ethanamine hydrochloride]: the response vs control in vivo at 23.1 mg/kg turned out to be 124% in experiment [1] (setting [3]) and 113% in experiment [1] (setting [2]). The inhibition in vivo at 12.5 µmol/kg in the experiment with blood glucose (po, 2 h) stood at 47%.
Turning to `CCOC(CNC(C)Cc1ccc(OCC(=O)OC)cc1)c1cccc(Cl)c1` (stereo not drawn) [Example 3, N-[2-(4-Carbomethoxymethoxyphenyl)-1-methylethyl]-2-ethoxy-2-(3-chlorophenyl)ethanamine hydrochloride], the response vs control in vivo at 22.1 mg/kg in experiment [1] (setting [3]) was determined as 135%; in experiment [1] (setting [2]) it was 116%. Also, the inhibition in vivo at 12.5 µmol/kg in the experiment with blood glucose (po, 2 h) stood at 49%.
Take `CNC(=O)COc1ccc(CC(C)NCC(OC)c2cccc(Cl)c2)cc1` (stereo not drawn) [Example 4, N-[2-(4-Methylaminocarbonylmethoxyphenyl)-1-methylethyl]-2-methoxy-2-(3-chlorophenyl)ethanamine hydrochloride]: the results for the response vs control in vivo at 8.5 mg/kg in experiment [1] (setting [3]) and in experiment [1] (setting [2]) were 152% and 120%, respectively. The inhibition in vivo at 1 µmol/kg with blood glucose (po, 2 h) is 54%.
Consider `COC(=O)c1ccc(CC(C)NCC(OC)c2cccc(Cl)c2)cc1` (stereo not drawn) [Example 5, N-[2-(4-Carbomethoxyphenyl)-1-methylethyl]-2-methoxy-2-(3-chlorophenyl)ethanamine hydrochloride], for which the figures for the response vs control in vivo at 19.9 mg/kg in experiment [1] (setting [3]) and in experiment [1] (setting [2]) were 128% and 117%, respectively. Further, in the experiment on blood glucose (po, 2 h), the inhibition in vivo at 12.5 µmol/kg was determined as 27%.
For the compound `COC(=O)COc1cccc(CC(C)NCC(OC)c2cccc(Cl)c2)c1` (stereo not drawn) [Example 8, N-[2-(3-Carbomethoxymethoxyphenyl)-1-methylethyl]-2-methoxy-2-(3-chlorophenyl)ethanamine hydrochloride], the response vs control in vivo at 21.4 mg/kg turned out to be 142% in experiment [1] (setting [3]) and 111% in experiment [1] (setting [2]). Also, the inhibition in vivo at 12.5 µmol/kg in the experiment with blood glucose (po, 2 h) was 49%.
With `COC(=O)COc1ccc(CCC(C)NCC(OC)c2cccc(Cl)c2)cc1` (stereo not drawn) [Example 14, N-[3-(4-Carbomethoxymethoxyphenyl)-1-methylpropyl)-2-methoxy-2-(3-chlorophenyl)ethanamine hydrochloride], the response vs control in vivo at 22.1 mg/kg in experiment [1] (22.1 mg/kg po, 0-3 h, read-out: Mean Energy Expenditure (0-3 h)) turned out to be 135%; in experiment [1] (22.1 mg/kg po, 0-21 h, read-out: Mean Energy Expenditure (0-21 h)), 103%.
Regarding `COC(=O)c1ccc(CC(C)NCC(OC)c2ccccc2)cc1` (stereo not drawn) [Example 32, N-[2-(4-Carbomethoxyphenyl)-1-methylethyl]-2-methoxy-2-phenylethanamine hydrochloride hemihydrate], the inhibition in vivo at 12.5 µmol/kg in the experiment on blood glucose (setting [4]) was found to be 19%.
Regarding `COc1ccc(CC(C)NCC(OC)c2cccc(Cl)c2)cc1` (stereo not drawn) [Example 38, N-[2-(4-Methoxyphenyl)-1-methylethyl]-2-methoxy-2-(3-chlorophenyl)ethanamine hydrochloride], the inhibition in vivo at 25 µmol/kg in the experiment with blood glucose (po, 2 h) worked out at 38%.
For `COC(=O)c1ccc(CC(C)NCC(OC)c2cccc(C(F)(F)F)c2)cc1` (stereo not drawn) [Example 45, N-[2-(4-Carbomethoxyphenyl)-1-methylethyl]-2-methoxy-2-(3-trifluoromethylphenyl)ethanamine hydrochloride hemihydrate], the inhibition in vivo at 12.5 µmol/kg with blood glucose (setting [4]) came to 38%.
As to `CNC(=O)COc1ccc(CC(C)NCC(OC)c2cccc(F)c2F)cc1` (stereo not drawn) [Example 54, N-[2-(4-Methylaminocarbonylmethoxyphenyl)-1-methylethyl]-2-methoxy-2-(2,3-difluorophenyl)ethanamine dihydrochloride], in the experiment on blood glucose (po, 2 h), the inhibition in vivo at 25 µmol/kg worked out at 40%.
